This is an account of results in ChEMBL document CHEMBL4265892, “New series of 3,5-disubstituted tetrahydro-2H-1,3,5-thiadiazine thione (THTT) derivatives: Synthesis and potent antileishmanial activity” (Bioorg Med Chem Lett, 2018).

Structures are written as SMILES.

One data set deals with Leishmania major. The experiment in a line: Antileishmanial activity against Leishmania major promastigotes after 72 hrs by Neubauer chamber based cell counting method. The class given is functional, organism-based.
A short description of data set [1]: Cytotoxicity against […] 3T3 cells assessed as inhibition of cell viability at 50 uM after 48 hrs by MTT assay. The class given is cell-based. The settings on record: read-out: INH.
Data set [2] in a line: Cytotoxicity against […] 3T3 cells after 48 hrs by MTT assay. The class given is cell-based.

As to `CCN1CSC(=S)N(CC)C1`, the IC50 in the data set with Leishmania major worked out at 38.4 µM.
The same measure, in the same setting: as for `CC(C)N1CN(CC(=O)O)CSC1=S`, the figure is 137 µM; as for `CCCCN1CSC(=S)N(CC(=O)O)C1`, 36.6 µM.
The same measure, in the same setting: the same measure for `CCCN1CN(CC(=O)OCC)CSC1=S`: 107 µM; for `CC(c1ccccc1)N1CN(CCO)CSC1=S` (stereo not given): 32.2 µM.
Take `CCCN1CSC(=S)N(CC(=O)O)C1`: in the data set on Leishmania major, the IC50 stood at 69.6 µM.
Still for that read-out and setting: the same measure for `CC(C)N1CSC(=S)N(C(C)c2ccccc2)C1` (stereo not given): 21.4 µM; for `CCCCN1CN(CC(=O)O)CSC1=S`: 24.6 µM.
Same read-out and setting: the same measure for `CCN1CN(CC(=O)O)CSC1=S`: 33.1 µM.
`CCN1CSC(=S)N(C(C)c2ccccc2)C1` (stereo not given): 46.2 µM corresponded to half-maximal inhibition in the data set with Leishmania major (IC50).
Same read-out and setting: as for `CC(c1ccccc1)N1CN(CC(=O)O)CSC1=S` (stereo not given), the figure is 30.7 µM.
In the data set with Leishmania major, `CCCCN1CSC(=S)N(C(C)c2ccccc2)C1` (stereo not given) gave an IC50 of 21.4 µM.
Take `CCCN1CN(CC(=O)O)CSC1=S`: the IC50 in the data set on Leishmania major was determined as 39.3 µM; in data set [2] (NIH3T3, 48 h, read-out: IC50), 38.1 µM. Further, in data set [1], the cytotoxicity at 48 h, 50 µM was 56.6%.
`CCCN1CN(CC(=O)OCc2ccccc2)CSC1=S` showed an IC50 in the data set with Leishmania major of 93.1 µM.
The same measure, in the same setting: the same measure for `O=C(O)CN1CN(CCO)CSC1=S`: 39.4 µM; for `CCCN1CSC(=S)N(C(C)c2ccccc2)C1` (stereo not given): 24.2 µM.
Turning to `COc1ccc(CN2CN(CC(=O)O)CSC2=S)cc1OC`, the IC50 with Leishmania major is 15.5 µM; in data set [2] (NIH3T3, 48 h, read-out: IC50) it was 22.7 µM. Further, the cytotoxicity at 48 h, 50 µM in data set [1] stood at 86.8%.
As to `CCCCN1CN(CC(=O)OCC)CSC1=S`, in the data set with Leishmania major, the midpoint of inhibition, the IC50, lay at 36.5 µM.
Regarding `CCCN1CN(CC(=O)OC)CSC1=S`, the half-inhibitory concentration (IC50) in the data set with Leishmania major was 203 µM; in data set [2] it was “Not Active”. The cytotoxicity at 48 h, 50 µM in data set [1] is 36.9%.
Regarding `CCN1CSC(=S)N(CC(=O)O)C1`, it took 45.8 µM to reach half-maximal inhibition in the data set with Leishmania major (IC50).
Still for that read-out and setting: as for `C[C@@H]1[C@H](O)[C@@H](C)/C=C/C=C/C=C/C=C/C=C/C=C/C=C/[C@H](O[C@@H]2O[C@H](C)[C@@H](O)[C@H](N)[C@@H]2O)C[C@@H]2O[C@](O)(C[C@@H](O)C[C@@H](O)[C@H](O)CC[C@@H](O)C[C@@H](O)CC(=O)O[C@H]1C)C[C@H](O)[C@H]2C(=O)O` [AMPHOTERICIN B], the figure is 0.31 µM.
With `C[C@@H]1C[C@@H]([C@H](O)CC2CC(=O)NC(=O)C2)C(=O)[C@@H](C)C1` [CYCLOHEXIMIDE], the cytotoxicity at 48 h, 50 µM in data set [1] is 66%. For the same molecule, in data set [2] (NIH3T3, 48 h, read-out: IC50), the IC50 is 0.61 µM.
For `N=C(N)c1ccc(OCCCCCOc2ccc(C(=N)N)cc2)cc1` [PENTAMIDINE], the IC50 in the data set with Leishmania major is 15 µM.
